Drawing on PubChem BioAssay AID449764 (Southern Research Specialized Biocontainment Screening …, 2010), this text covers IC50 and IC90 for 72 compounds.

For this test, the system named is Mycobacterium tuberculosis H37Rv growth inhibition, no glycerol. The experiment in a line: Confirmatory growth inhibition assay, Mycobacterium tuberculosis H37Rv, absence of glycerol (AID 449764).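 On all read-outs here: growth read after 7 days of incubation.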 To be noted: for IC90: measured here: IC90 growth inhibition.

Take `CN(CC(=O)Nc1ccc(OC(F)(F)F)cc1)C(=O)/C=C/c1cc2c(cc1[N+](=O)[O-])OCO2`: the 50% inhibitory concentration (IC50) (commonly the concentration that gives 50% inhibition) was 34.5 µM and the IC90 (commonly the concentration at which the effect reaches the 90% level) turned out to be 40.5 µM.
The like results for `Cc1ccc(/C=C/S(=O)(=O)NCC(=O)OCC(=O)Nc2c(F)cccc2F)cc1` were, in that order, 22.9 µM and 41.3 µM.
In the case of `O=C(NC(C(=O)N/N=C/c1cccc2ccccc12)c1n[nH]c(=O)c2ccccc12)c1ccccc1` (configuration not stated), the IC50 is 58.8 µM and the IC90 was > 100 µM.
In the same order, the values of `N=c1n(Cc2ccc(Cl)cc2)c2ccccc2n1CC(O)COc1ccccc1` (configuration not stated) are 22.7 µM and 27.2 µM.
On to `COc1cccc(-c2nnc(NC(=O)c3ccc(S(=O)(=O)N4CCOCC4)cc3)o2)c1`, for which the IC50 is 32.4 µM and the IC90 came out at 46 µM.
Consider `COc1ccc(CCNc2nc(N3CCCCC3)nc(N3CCCCC3)n2)cc1OC`, for which the IC50 was 18 µM and the IC90 came out at 23.3 µM.
The like results for `COc1ccc(-c2c[n+]3c4n2CCCCC4=C(c2ccccc2)C3)cc1` were, in that order, 63.1 µM and 78.7 µM.
With `Cc1ccccc1N/N=C/c1c(C)nc2ccccn12`, the IC50 was 57.8 µM and the 90% effect concentration (IC90) was 72.5 µM.
For the compound `Cc1cccc(C)c1OCCCCc1c(C)n[nH]c1C`, the IC50 is 17.7 µM and the concentration for an effect of 90% (IC90) is > 100 µM.
The like results for `O=[N+]([O-])c1cnc(Nc2ccc(Cl)cn2)c([N+](=O)[O-])c1` were, in that order, 90.3 µM and 99.4 µM.
The like results for `O=[N+]([O-])c1cc(-c2ccc(/C=N\n3cnnc3)o2)cc([N+](=O)[O-])c1` were, in that order, 45.5 µM and 49.9 µM.
In the same order, the values of `c1ccc(Cn2c(CNc3nc4ccccc4n3CCN3CCCCC3)nc3ccccc32)cc1` are 44.6 µM and 72.8 µM.
With `CN(C)CCCNC(=O)c1ccc(-c2nc(-c3ccc(Cl)cc3)cs2)cc1`, the concentration for half-maximal inhibition (IC50) was 26.4 µM and the IC90 was 33.8 µM.
Consider `COc1cc(NC(=O)C/C(C)=N/NC(=O)c2ccccn2)c(OC)cc1Cl`, for which the IC50 is 5.83 µM and the IC90 turned out to be 9.98 µM.
Turning to `CNc1nc(-c2ccccn2)nnc1-c1ccccc1`, the IC50 is 22.7 µM and the IC90 came out at 25.4 µM.
In the same order, the values of `COCc1nnc(NC(=O)C2CC(=O)N(c3ccc(C)c(Cl)c3)C2)s1` (configuration not stated) are 76.5 µM and > 100 µM.
Regarding `CC(C)(Oc1ccc(Cl)cc1)C(=O)OCC(=O)N1CCN(c2ccccc2)CC1`, the IC50 was 52 µM and the concentration for an effect of 90% (IC90) was 80.9 µM.
`COc1ccc(C2CC(=O)C3=C(C2)NC(C)=C(C#N)C3c2ccc(N(C)C)cc2)cc1` (configuration not stated): the 50% inhibitory concentration (IC50) was 22.2 µM and the IC90 was found to be 35.6 µM.
The like results for `CCCC(=O)OCCNc1cc(SCCC(=O)OC)c2nonc2c1[N+](=O)[O-]` were, in that order, 5.85 µM and 6.66 µM.
As for `COCCCNC(=O)/C(C#N)=C/c1c(N2CCN(c3cccc(Cl)c3)CC2)nc2c(C)cccn2c1=O`, the IC50 is 38.5 µM and the IC90 is > 100 µM.
`CCc1nc2ccccc2c(C(=O)Nc2cc(C)ccc2C)c1C`: the IC90 was > 100 µM.
In the case of `O=S1(=O)N(CCN2CC=C(c3c[nH]c4cc(F)ccc34)CC2)c2cccc3c2N1CCC3`, the concentration for half-maximal inhibition (IC50) was 11.2 µM and the concentration for an effect of 90% (IC90) came out at 12.3 µM.
Consider `CCc1cc2c(=O)n(C(C)C(=O)OC3CCCCC3)cnc2s1` (configuration not stated), for which the concentration for half-maximal inhibition (IC50) is 24.1 µM and the IC90 came out at 52 µM.
The like results for `CC1=C(C)C(=O)C(CCCCC#CCCCC#CCO)=C(C)C1=O` were, in that order, 24 µM and 26.2 µM.
The like results for `Cc1oc(-c2cccc(Cl)c2)nc1CN1CCC(C(=O)N2CCN(c3ccccc3F)CC2)CC1` were, in that order, 18.7 µM and 26.4 µM.
The like results for `O=C(NC(=S)Nc1ccc(N2CCCCC2)c(Cl)c1)c1cccs1` were, in that order, 21.2 µM and 29.2 µM.
Turning to `CCN(CC(=O)NCc1cccs1)C(=O)c1ccc([N+](=O)[O-])o1`, the 50% inhibitory concentration (IC50) was 91.9 µM and the 90% effect concentration (IC90) was > 100 µM.
The like results for `Oc1ccc(N=Nc2n[nH]c(-c3ccc(Cl)cc3)n2)cc1` were, in that order, 12.9 µM and 32.4 µM.
As for `CCn1c2ccccc2c2cc(CN3CCN(Cc4cc(OC)ccc4O)CC3)ccc21`, the concentration for half-maximal inhibition (IC50) is 17.2 µM and the IC90 turned out to be 23.4 µM.
The like results for `Cc1ccnc(NC(=O)CCc2c[nH]c3ccccc23)c1` were, in that order, 21.5 µM and 31.9 µM.
The like results for `O=[N+]([O-])c1cccnc1N1CCC(c2cc(-c3cccc(C(F)(F)F)c3)n[nH]2)CC1` were, in that order, 21.5 µM and 34.4 µM.
In the same order, the values of `Cc1cncn1CCc1nc2c3ccccc3nc(SCC(=O)Nc3cccc(Cl)c3)n2n1` are 27.4 µM and 31.9 µM.
Turning to `Cc1cc(=O)oc2cc(Oc3ccc([N+](=O)[O-])cc3C(F)(F)F)ccc12`, the IC50 is 50 µM and the IC90 was > 100 µM.
The like results for `O=C(CCC(=O)OCc1ccc(C(=O)Oc2ccc(Cl)cc2)cc1)Nc1ccccc1` were, in that order, 80.2 µM and > 100 µM.
As to `O=C(CCl)NN=C(c1ccccc1)c1ccccc1`, the IC50 is 1.32 µM and the 90% effect concentration (IC90) is 2.09 µM.
The like results for `COC(=O)C1CC(=O)N(c2ccc(OCc3ccccc3Cl)cc2)C1` (configuration not stated) were, in that order, 1.26 µM and 4.8 µM.
In the same order, the values of `O=C(O)C1CC=CCC1C(=O)N1CCN(c2nc(-c3ccccc3Cl)c3cc(Br)ccc3n2)CC1` (configuration not stated) are 43.2 µM and 68.8 µM.
In the same order, the values of `CN(C(=O)COC(=O)c1sc2ccccc2c1Cl)C1CCCCC1` are 9.63 µM and 14.2 µM.
`Cc1sc2ncnc(N3CCC(C(=O)N(CC(C)C)c4nc5ccccc5s4)CC3)c2c1C`: the concentration for an effect of 90% (IC90) is > 100 µM.
Consider `C=CCc1cc(C)ccc1OCCCC(C(=O)OCC)C(=O)OCC`, for which the IC50 was 28.1 µM and the IC90 stood at 52.1 µM.
In the case of `Cc1nc2ccc(NC(=O)c3ccc([N+](=O)[O-])cc3[N+](=O)[O-])cc2s1`, the IC50 is 35.7 µM and the 90% effect concentration (IC90) is > 100 µM.
In the same order, the values of `CC[n+]1c(/C=C/N(C)c2ccccc2)n(-c2ccccc2)c2ccc(-c3nc4ccccc4s3)cc21` are 1.13 µM and 1.36 µM.
For `COc1ccc(-c2nnn(CC(=O)OC3CCCCC3)n2)cc1OC`, the IC50 is 20.6 µM and the 90% effect concentration (IC90) was > 100 µM.
The like results for `CC(C)CC[n+]1ccccc1/C=C/c1ccc(N(C)C)cc1` were, in that order, 10.2 µM and 15.4 µM.
Regarding `Cc1nc(NC(=O)c2ccccc2)sc1C1(C)CC(c2ccc(OC(F)(F)F)cc2)=NO1` (configuration not stated), the IC50 is 29.7 µM and the concentration for an effect of 90% (IC90) came to 60.4 µM.
In the same order, the values of `CCOc1cccc(/C=C/c2ccc3cccc(O)c3n2)c1O` are 4.28 µM and > 100 µM.
In the case of `C/C(=N\NC(=O)c1cc2ccccc2cc1O)c1ccc(C)o1`, the half-inhibitory concentration (IC50) is 10.5 µM and the IC90 turned out to be 18.7 µM.
Turning to `c1ccc(CC2CCN(C3=Nc4cccc5cccc3c45)CC2)cc1`, the concentration for half-maximal inhibition (IC50) was 28.3 µM and the IC90 is 37.9 µM.
In the same order, the values of `COc1cc(/C=C(\C#N)c2nc3c(s2)CC(C)CC3)ccc1O` (configuration not stated) are 45.5 µM and 51.4 µM.
Take `Oc1c(C(c2ccccc2Cl)N2CCCC2)ccc2cccnc12` (configuration not stated): the IC50 is 31.2 µM and the 90% effect concentration (IC90) is 37.7 µM.
With `Cc1ccc(C(=O)ONc2ccc(N=O)cc2)cc1`, the IC50 was 57.3 µM and the IC90 is > 100 µM.
On to `Cc1ccc(C2CC(c3cccs3)=NN2C(=O)CCl)cc1` (configuration not stated), for which the IC50 was 1.42 µM and the IC90 stood at 1.77 µM.
The like results for `O=C(CSC1=Nc2ccccc2C2=NC(c3ccccc3)C(=O)N12)NC1CCCCC1` (configuration not stated) were, in that order, 1.03 µM and 1.73 µM.
As for `Cc1ccc2nc(-c3ccncc3)cc(-c3ccccc3)c2c1`, the IC50 was 43.8 µM and the 90% effect concentration (IC90) was 48.6 µM.
For the compound `CSC1=NC(C)(C)C=C(/C=C/c2ccc(Cl)cc2)N1`, the IC50 was 38.3 µM and the concentration for an effect of 90% (IC90) was 56.7 µM.
`CCOC(=O)N1CCN(c2nc(N(c3ccccc3)c3ccccc3)nc(-n3ccnc3)n2)CC1`: the half-inhibitory concentration (IC50) is 98.2 µM and the IC90 was > 100 µM.
Regarding `COc1ccc2c3n(nc2c1)CCN=C3c1cc(Cl)c(N)c(Cl)c1`, the IC50 is 94.1 µM and the concentration for an effect of 90% (IC90) was found to be 97.7 µM.
The like results for `Cc1cc(O)c2c(c1)C(=O)c1cc(O)cc(O)c1C2=O` were, in that order, 89 µM and > 100 µM.
The like results for `Cc1ccc(OCc2cc(C(=O)N(C)Cc3cnc4ccccn34)no2)cc1C` were, in that order, 35.1 µM and > 100 µM.
With `Cc1cc(C)c2ccc(NN)nc2c1O`, the IC50 was 4.04 µM and the IC90 amounted to 4.87 µM.
The like results for `O=C1NCC(O)=C1C=Nc1ccccc1O` were, in that order, 5.54 µM and 7.6 µM.
Consider `CCOC(=O)c1c(-c2ccc(OC)cc2)csc1NC(=O)CNCc1ccco1`, for which the IC50 was 22.3 µM and the IC90 stood at 25.5 µM.
As to `c1ccc(/N=C2\N=C(Nc3ccccn3)c3ccccc32)nc1`, the 50% inhibitory concentration (IC50) was 2.05 µM and the IC90 worked out at 3.02 µM.
The like results for `COc1cc2c(cc1NC(=O)CN1C(=O)NC3(CCc4ccccc43)C1=O)oc1ccccc12` (configuration not stated) were, in that order, 19.9 µM and > 100 µM.
The like results for `COc1ccc(-c2csc3ncnc(N4CCN(c5ccccc5OC)CC4)c23)cc1` were, in that order, 22.8 µM and 25.5 µM.
As for `COc1cc2c(C(=O)N3CCN(c4cccc(Cl)c4)CC3)cn(CC(C)C)c(=O)c2cc1OC`, the IC50 is 47.4 µM and the 90% effect concentration (IC90) amounted to 73.4 µM.
In the same order, the values of `c1ccc2c(C3=NNC(=NC4CCCCC4)SC3)c[nH]c2c1` are 37.7 µM and 45.4 µM.
The like results for `Cc1ccnc(NC(=O)COc2ccc3c(c2)CCC3)c1` were, in that order, 85.7 µM and > 100 µM.
Turning to `CCCc1cc(C(N)=S)ccn1`, the concentration for half-maximal inhibition (IC50) is 17.1 µM and the 90% effect concentration (IC90) was > 100 µM.
In the same order, the values of `Cc1ccc(-n2cc(CN(C)Cc3nccn3C)c(-c3cccc(C)c3)n2)cc1` are 13.1 µM and 17.4 µM.
In the same order, the values of `O=C(/C=C/c1ncc(C(F)(F)F)cc1Cl)OCc1ccccc1` are 90.5 µM and > 100 µM.
The like results for `C(C#CCCCCCCCCC[n+]1ccccc1)#CCCCCCCCCC[n+]1ccccc1` were, in that order, 4.02 µM and 6.85 µM.
